Values quoted from earlier work, collected in patent US7407975B2, “Epothilone derivatives, method for producing same and their pharmaceutical use” (priority 1997, dated 2008).

System: P-glycoprotein-forming multiresistant tumor lines
Settings: in comparison to taxol

Row | Compound | activity against P-glycoprotein-forming multiresistant tumor lines
1 | C/C(=C\c1csc(C)n1)[C@@H]1C[C@@H]2O[C@]2(C)CCC[C@H](C)[C@H](O)[C@@H](C)C(=O)C(C)(C)[C@@H](O)CC(=O)O1 [Epothilone B, epothilone B] | significantly higher activity
2 | C/C(=C\c1csc(C)n1)[C@@H]1C[C@@H]2O[C@@H]2CCC[C@H](C)[C@H](O)[C@@H](C)C(=O)C(C)(C)[C@@H](O)CC(=O)O1 [Epothilone A, epothilone A] | significantly higher activity
